Laboratory results as given in patent US20200061018A1, “METHODS AND COMPOSITIONS FOR TREATING PARKINSON'S DISEASE” (Cove Bio LLC, priority 2016, published 2020).

Tested on: patient with Parkinson's disease, positive for Malassezia infection
Test: Example 3: Parkinson's patient positive for Malassezia infection given intravenous amphotericin B deoxycholate plus intranasal saline irrigation
Assay type: in vivo, human
Conditions: i.v. 1.0 mg/kg/day for 3 weeks in combination with intranasal aqueous saline solution, follow-up 6 months after the course
Protocol: A patient is clinically evaluated by a physician for deterioration of health because of their progression of symptoms of Parkinson's disease which include tremor, speech dysfunction, aberrant personality changes, abulia, and difficulties with mentation. Patient has no overt symptoms of Malassezia infection. […] Patient is treated with an intravenous administration of a commercially available amphotericin formulation of amphotericin B deoxycholate at 1.0 mg/kg/day in combination with a twice daily treatment regimen of intranasal aqueous saline solution. The solution comprises a mixture of 1 teaspoon of baking soda, 1.5 teaspoons of salt, and 1 quart sterilized distilled water. The solution is administered intranasally using a pulsating irrigation device. The pulsating irrigation device sends a gentle pulse of the solution into the nose via a nasal irrigation tip that can reach into and contact with the upper nasal passages. The amphotericin B treatment regimen is discontinued after 3 weeks. The total amount of amphotericin B administered to the patient over the course of treatment is about 1.8 grams. The nasal wash is continued to be administered to the patient indefinitely on a once daily basis. Routine follow-up is conducted by the physician 6 months after completion of the amphotericin B treatment course.

amphotericin B deoxycholate was tested, and the “caregiver report of symptoms” value was “improved mood, improved affect, decreased fatigue, decreased abulia, and improved mentation” and the “progression of Parkinson's disease measured with the MDS-UPDRS” value (person) was “halted”.
